Data reported in patent US5149688A, “Methods, compounds, and compositions for immunosuppression” (priority 1990, dated 1992).
Like-named read-outs stand apart in the source and are kept apart here.

Experiments:
lymphocytes [1] = assay: Phytohemagglutinin A (PHA) assay; type: cell-based; conditions: Lymphocyte, read-out: concentration giving 50% inhibition, PHA assay
Text: (§1) The following studies sought to characterize the immunosuppressive activities of ABA, both as to in vitro and in vivo efficacy in experimental systems. It is important to point out that the results obtained from the in vitro systems are generally predictive of the in vivo immunosuppressive properties of the ABA. More specifically, the assays used here are mixed lymphocyte response (MLR) and phytohemagglutinin A (PHA) assays which are valuable for identifying immune suppressive molecules in vitro, and that the results obtained therefrom are generally predictive of their in vivo effectiveness. The assays are further described below.
A second assay widely used to study immune responsiveness is mitogenic stimulation of lymphocytes with mitogenic substances of plant origin. The most widely used plant molecule is PHA.
(§2) Thus, it will be appreciated as to both the mixed lymphocyte and PHA assay that they are valuable for identifying immune suppressive molecules in vitro, and that the results obtained therefrom are generally predictive of their in vivo effectiveness.

lymphocytes [2] = assay: Primary mixed lymphocyte response (MLR) assay; type: cell-based; conditions: read-out: concentration giving 50% inhibition, primary MLR assay
Text: as §1
The in vitro mixed lymphocyte assay is presently employed in the clinical setting as an indicator of histocompatibility, and is premised on the transformation of resting genetically dissimilar lymphocytes into cells which synthesize DNA and undergo proliferation.
as §2

lymphocytes [3] = assay: Secondary mixed lymphocyte reaction (2'-MLR) assay; type: cell-based; conditions: read-out: concentration inhibiting 50% of the stimulatory activity, 2'-MLR
Text: In addition to the above immunosuppressive assays, a secondary mixed lymphocyte reaction assay was applied to ABA. The secondary mixed lymphocyte assays differs from the primary mixed lymphocyte reaction assays in that they employ many more primed responder cells that are responsive to the primary stimulating cells. The presence of such responsive cells is a reflection of immunological memory in an ongoing immunological response. […] Generally between 10% to 50% of the original input cells are recovered in viable condition. These cells are then used in the secondary mixed lymphocyte reaction.
The procedure for carrying out a secondary mixed lymphocyte reaction is described by T. Meoen, Immunological Methods, Eds I. Lefkoivits and B. Pernis, […], New York (1979). It will be appreciated that described therein is a method for carrying out secondary lymphocyte reactions using mouse cells, however such methods are generally applicable to performing secondary mixed lymphocyte reactions using human cells with modifications that are well known to those skilled in the art.

adjuvant arthritis (AA) [4] = tested on: adjuvant arthritis (AA)
[5] = tested on: rheumatoid arthritis (RA); conditions: human, in vivo; cited from earlier work
dihydrofolate reductase = conditions: cited from earlier work
adjuvant arthritis (AA) [6] = assay: Prophylactic effect of SA on adjuvant arthritis in rats (Example 1); type: in vivo, male Lewis rats
[7] = Plasma levels of SA during CI therapy (HPLC); type: in vivo, male Lewis rats; conditions: 400 mg/kg/day CI; for concentration at 216 h: rat, plasma, sc, 400 mg/kg/day
adjuvant arthritis (AA) [8] = assay: Therapeutic effect of SA on AA (Example 2); type: in vivo, rats
Protocol: The following experiments examined the therapeutic effect of SA on the progression of AA. In these studies, the treatments with SA began at day 5 after the rats had been immunized with M.Tb in their left footpads. At this time, the activation of lymphoid cells with M.Tb was well established and the appearance of mononuclear cells at the joint has been reported as the earliest histologic findings. Billingham, 1983, Pharma. Theory, 21: 389.
325 mg/kg/day of SA was administered by subcutaneous pump infusion from day 5 until day 19. The control animals received isotonic and isovolumic NaCl control.
A parallel group of animals were treated with daily intraperitoneal injections of 800 mg/kg/day of SA (FIGS. 6 and 7). This was done to compare the relative efficacy of continuous infusion versus a single daily intraperitoneal injection.

adjuvant arthritis (AA) [9] = assay: Comparative efficacy of MTX and SA in suppressing onset of AA (Example 3); type: in vivo, Lewis rats
Protocol: On the same day, pumps were surgically implanted into the first two groups. The first group received SA at 300 mg/kg/day through the pumps. The second group, which served as the control, received continuous infusion of 2.5M NaCl through the pumps.

[10] = tested on: established adjuvant arthritis (AA); assay: Comparative efficacy of SA and MTX in the treatment of established arthritis (Example 4); type: in vivo, male Lewis rats
Protocol: Three groups of 15 male Lewis rats were injected with M.Tb on day 0 in the left hindpaw. […] On day 16, subcutaneous pumps were placed in the SA and control groups. SA was administered at 300 mg/kg/day by CI. The control group received 2.5M NaCl. […] Treatment was continued to day 30.

adjuvant arthritis (AA) [11] = assay: Long term suppression of AA using combined SA and MTX treatment (Example 6); type: in vivo, male Lewis rats; conditions: SA 300 mg/kg/day IP or MTX 0.9 mg/kg/week IP, day 5 to 15
Protocol: On day 0, three groups of 10 male Lewis rats were injected with M.Tb in oil suspension, as in previous examples. […] The animals were evaluated for arthritis development.

[12] = rat, in vivo
Protocol: (§3) Isotonic and isovolumic saline was used as the control in this subcutaneous infusion treatment regimen (hereinafter referred to as SQ, or continuous infusion, CI, regimen). The treatment was started on day -4 prior to M.Tb injection (day 0). The pumps were calculated to infuse until day 10. Ten rats were used in each group.

[13] = tested on: delta-aminolevulinic dehydratase; conditions: cited from earlier work
allogeneic tumors = conditions: rats; cited from earlier work
[14] = Body weight / toxicity of rats under prophylactic SA treatment; conditions: SA level necessary for suppression of AA
Protocol: as §3

adjuvant arthritis (AA) [15] = assay: Therapeutic treatment of AA with SA and/or MTX, summary of set of experiments run in triplicate
Protocol: In the SA and MTX combined treatment regimen, the SA was administered in an amount ranging from 150-300 mg/kg/day. The MTX was administered three times a week in IP injections, at a total of 0.9 mg/kg/week.

[16] = SA 300 mg/kg/day CI, day 16 to 30

CC(=O)CC(=O)c1ccccc1C(=O)O [ABA, 2-acetoacetyl benzoic acid]
IC50 (lymphocytes [1]): 91 ± 60 µM | IC50 (lymphocytes [2]): 870 ± 280 µM | IC50 (lymphocytes [3]): ~1600 µM | footpad swelling at day 19, 4 days after cessation (adjuvant arthritis (AA) [4]; ABA 400 mg/kg/day IP): decreased footpad swelling | suppression of AA, ABA compared with SA (adjuvant arthritis (AA) [4]; ABA 400 mg/kg/day IP vs SA 800 mg/kg/day IP): ABA is more efficacious than SA in suppressing AA | footpad swelling, clinical disease scores and incidence of arthritis during administration (adjuvant arthritis (AA) [4]; ABA 400 mg/kg/day IP, FIGS. 14 and 15): AA was suppressed; the footpad swelling, clinical disease scores and incidence of arthritis were all lowered | Arthritis Incidence (adjuvant arthritis (AA) [4]; ABA 100 in ABA/PEG formulation, day 12): 100% | Arthritis Incidence (adjuvant arthritis (AA) [4]; ABA 100 in ABA/PEG formulation, day 19): 100% | suppression of arthritis (adjuvant arthritis (AA) [4]; ABA 200 and 100 mg/kg/day IP): did not show observable suppression of arthritis | Arthritis Incidence (adjuvant arthritis (AA) [4]; ABA 200 in ABA/PEG formulation, day 12): 100% | Arthritis Incidence (adjuvant arthritis (AA) [4]; ABA 200 in ABA/PEG formulation, day 19): 100% | Arthritis Incidence (adjuvant arthritis (AA) [4]; ABA 400 in ABA/PEG formulation, daily IP day 5 to 15, day 12, control 100%): 40% | Arthritis Incidence (adjuvant arthritis (AA) [4]; ABA 400 in ABA/PEG formulation, day 19 (4 days after cessation)): 100% | suppression of AA at 400 mg/kg/day, post-immunization regimen (adjuvant arthritis (AA) [4]; ABA given IP): ABA suppressed AA at 400 mg/kg/day when given IP in a post-immunization regimen

CC(C)(S)[C@@H](N)C(=O)O [D-penicillamine]
toxic side effects [5]: causes bone marrow depression and renal toxicity

CN(Cc1cnc2nc(N)nc(N)c2n1)c1ccc(C(=O)N[C@@H](CCC(=O)O)C(=O)O)cc1 [MTX, Methotrexate]
inhibition of dihydrofolate reductase (dihydrofolate reductase): inhibits dihydrofolate reductase

CC(=O)CC(=O)CCC(=O)O [SA, Succinylacetone]
arthritis severity, dose dependence (adjuvant arthritis (AA) [6]; SA 400 and 200 mg/kg/day CI, day -4 to day 10): inhibited arthritis severity in a dose dependent manner | right footpad swelling and arthritis in non-injected extremities (adjuvant arthritis (AA) [6]; SA 400 and 200 mg/kg/day, SQ ALZET pumps, day -4 to day 10, FIGS. 1 and 2): suppression of clinical arthritis | histologic arthritis of the joints (adjuvant arthritis (AA) [6]; SA treated cohort, CI): found to suppress histologic arthritis | concentration ([7]; blood collected on day 9, individual rats SA-C1, SA-C2, SA-C3, 12960 min, 12960 min, read-out: SA Level (plasma)): 50 µM | concentration at 216 h ([7]; blood collected on day 9, individual rats SA-C1, SA-C2, SA-C3, read-out: SA Level (plasma)): 44 µM | concentration at 216 h ([7]; day 9, HPLC, read-out: plasma SA levels associated with clinical suppression of arthritis): 40 to 50 µM | continuous infusion versus daily IP injection (adjuvant arthritis (AA) [8]; 325 mg/kg/day CI vs 800 mg/kg/day IP): continuous infusion results in greater suppression at a lower dose than does daily IP injection | right hindpaw swelling and clinical severity of arthritis (adjuvant arthritis (AA) [8]; SA 325 mg/kg/day SQ pump infusion, day 5 to 19, FIGS. 4 and 5): Right hindpaw swelling and clinical severity of arthritis was suppressed | arthritis during treatment (adjuvant arthritis (AA) [8]; SA 325 mg/kg/day continuous infusion): completely suppressed during treatment | day until which the clinical scores did not increase (adjuvant arthritis (AA) [8]; SA 325 mg/kg/day continuous infusion, day 5 to 19): 36 days | increase in clinical scores relative to saline treated animals (adjuvant arthritis (AA) [8]; SA 325 mg/kg/day continuous infusion, from day 36): less than half of the saline treated animals | suppression of AA beyond termination of treatment (adjuvant arthritis (AA) [8]; SA 800 mg/kg/day IP, FIG. 7): did not suppress the AA beyond the termination of the treatment regimen | day by which groups reached equivalent severity to the controls (adjuvant arthritis (AA) [8]; SA 800 mg/kg/day, daily IP): ≤ 33 days | footpad swelling after termination of treatment (adjuvant arthritis (AA) [8]; SA 800 mg/kg/day, daily IP): an attenuated increase in footpad swelling was observed, however, the swelling was less than that found in the controls | footpad swelling during treatment (adjuvant arthritis (AA) [8]; SA 800 mg/kg/day, daily IP, FIG. 6): suppression of footpad swelling until the treatment stopped | clinical severity of arthritis (adjuvant arthritis (AA) [8]; SA 800 mg/kg/day, daily IP, FIG. 7): delayed the clinical severity of the arthritis | suppression of arthritis, both regimens (adjuvant arthritis (AA) [8]; continuous infusion and daily IP injections): resulted in suppression of arthritis | suppression of AA based on disease incidence (adjuvant arthritis (AA) [9]; SA 300 mg/kg/day CI): maximal suppression of AA based on the disease incidence | footpad swelling, SA compared with MTX (adjuvant arthritis (AA) [9]; SA 300 mg/kg/day CI vs MTX […] and 3 mg/kg/week): trend towards greater inhibition | incidence of arthritis (adjuvant arthritis (AA) [9]; SA 300 mg/kg/day CI, day 14, FIG. 9): no incidence of arthritis on day 14 | footpad swelling suppression (adjuvant arthritis (AA) [9]; SA 300 mg/kg/day CI, MTX 2.4 and 3 mg/kg/week IP, FIG. 8): significant suppression | right footpad diameter, progression from day 23 to 63 ([10]; SA 300 mg/kg/day CI or MTX […] IP, day 16 to 30, FIG. 10): did not increase significantly | persistence of lack of further swelling after cessation of treatment [10, 16]: up to 33 days | progression / regression of established arthritis [10, 16]: SA prevented progression of AA, but because the disease had already established itself at the onset of treatment, SA did not cause regression of the arthritis | mean right hindpaw thickness ([10]; day 23, SA 300 mg/kg/day CI or MTX […] IP from day 16, control 321, normal about 170 U): 258 U | suppression of AA, single drugs IP (adjuvant arthritis (AA) [11]): AA was not suppressed | body weight [12]: allowed weight gain | suppression of the disease by SA using this treatment protocol (adjuvant arthritis (AA) [4]; SA 800 mg/kg/day IP): only transient suppression of the disease | inhibition of delta-aminolevulinic dehydratase [13]: potent inhibitor | tumorigenicity of allogeneic tumors (allogeneic tumors): enhance tumorigenicity of allogeneic tumors in rats | toxicity [14]: non-toxic to the animals at the level necessary for suppression of AA | CI versus IP regimen at suppressing the AA (adjuvant arthritis (AA) [15]; 300 to 400 mg/kg/day CI vs 800 mg/kg/day IP): The CI regimen was more effective than the IP regimen at suppressing the AA | suppression of AA without death or weight loss (adjuvant arthritis (AA) [15]; SA 300 to 400 mg/kg/day CI or 800 mg/kg/day IP): suppressed AA without causing death or weight loss in the rats | SA dose at which AA was suppressed without death or weight loss, IP (adjuvant arthritis (AA) [15]; daily intraperitoneal injection): 800 mg/kg/day
